{
  "source": "patent US7659245B2",
  "about": "“Macrocylic inhibitors of hepatitis C virus” (Tibotec Pharmaceuticals Ltd, priority 2005, dated 2010)",
  "key": {"[1]": {"test_system": "HCV replicons (Huh-7 luc/neo cells, NS3-NS5B regions of HCV type 1b)", "test": "Replicon assay: inhibition of HCV RNA replication in Huh-Luc cells (luciferase read-out)", "type": "cell-based", "conditions": "Hepatitis C virus, Huh-7, 72 h, HCV type 1b replicon, luciferase activity after three days", "description": "The in vitro antiviral activity against HCV of the compounds of formula (I) was tested in a cellular HCV replicon system based on Lohmann et al. (1999) Science 285:110-113, with the further modifications described by Krieger et al. (2001) Journal of Virology 75: 4614-4624 (incorporated herein by reference), which is further exemplified in the examples section. This model, while not a complete infection model for HCV, is widely accepted as the most robust and efficient model of autonomous HCV RNA replication currently available. […] It will be appreciated that it is important to distinguish between compounds that specifically interfere with HCV functions from those that exert cytotoxic or cytostatic effects in the HCV replicon model, and as a consequence cause a decrease in HCV RNA or linked reporter enzyme concentration. Assays are known in the field for the evaluation of cellular cytotoxicity based for example on the activity of mitochondrial enzymes using fluorogenic redox dyes such as resazurin. Furthermore, cellular counter screens exist for the evaluation of non-selective inhibition of linked reporter gene activity, such as firefly luciferase. Appropriate cell types can be equipped by stable transfection with a luciferase reporter gene whose expression is dependent on a constitutively active gene promoter, and such cells can be used as a counter-screen to eliminate non-selective inhibitors.\nThe compounds of formula (I) were examined for activity in the inhibition of HCV RNA replication in a cellular assay. […] The cellular assay was based on a bicistronic expression construct, as described by Lohmann et al. (1999) Science vol. 285 pp. 110-113 with modifications described by Krieger et al. (2001) Journal of Virology 75: 4614-4624, in a multi-target screening strategy. In essence, the method was as follows.\nThe assay utilized the stably transfected cell line Huh-7 luc/neo (hereafter referred to as Huh-Luc). This cell line harbors an RNA encoding a bicistronic expression construct comprising the wild type NS3-NS5B regions of HCV type 1b translated from an Internal Ribosome Entry Site (IRES) from encephalomyocarditis virus (EMCV), preceded by a reporter portion (FfL-luciferase), and a selectable marker portion (neo^R, neomycine phosphotransferase). The construct is bordered by 5′ and 3′ NTRs (non-translated regions) from HCV type 1b. Continued culture of the replicon cells in the presence of G418 (neo^R) is dependent on the replication of the HCV RNA. The stably transfected replicon cells that express HCV RNA, which replicates autonomously and to high levels, encoding inter alia luciferase, are used for screening the antiviral compounds.\nThe replicon cells were plated in 384 well plates in the presence of the test and control compounds which were added in various concentrations. Following an incubation of three days, HCV replication was measured by assaying luciferase activity (using standard luciferase assay substrates and reagents and a Perkin Elmer ViewLux™ ultraHTS microplate imager). Replicon cells in the control cultures have high luciferase expression in the absence of any inhibitor. The inhibitory activity of the compound on luciferase activity was monitored on the Huh-Luc cells, enabling a dose-response curve for each test compound. EC50 values were then calculated, which value represents the amount of the compound required to decrease by 50% the level of detected luciferase activity, or more specifically, the ability of the genetically linked HCV replicon RNA to replicate."}, "[2]": {"biological_target": "full-length hepatitis C NS3 protease enzyme (HCV NS3/4A protease complexes) (Hepatitis C virus genotype 1a, UniProt P27958)", "sequence (P27958 1027-1657, one chain of several)": "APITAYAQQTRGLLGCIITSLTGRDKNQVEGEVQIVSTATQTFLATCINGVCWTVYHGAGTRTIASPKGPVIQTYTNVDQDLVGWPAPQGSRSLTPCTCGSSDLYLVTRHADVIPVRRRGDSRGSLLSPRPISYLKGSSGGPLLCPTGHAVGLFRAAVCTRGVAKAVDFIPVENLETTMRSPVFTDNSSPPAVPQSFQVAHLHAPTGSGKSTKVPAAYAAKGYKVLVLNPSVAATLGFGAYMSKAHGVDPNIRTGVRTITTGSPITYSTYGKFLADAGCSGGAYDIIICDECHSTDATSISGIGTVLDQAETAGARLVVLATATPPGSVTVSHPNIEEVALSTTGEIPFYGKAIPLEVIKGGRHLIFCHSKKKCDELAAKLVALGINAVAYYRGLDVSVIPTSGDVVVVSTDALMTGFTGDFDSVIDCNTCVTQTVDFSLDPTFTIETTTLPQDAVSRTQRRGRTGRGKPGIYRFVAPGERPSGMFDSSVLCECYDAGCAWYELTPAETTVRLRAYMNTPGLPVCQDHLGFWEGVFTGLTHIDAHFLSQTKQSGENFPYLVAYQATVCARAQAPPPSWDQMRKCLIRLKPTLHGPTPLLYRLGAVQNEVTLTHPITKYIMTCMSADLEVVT", "test": "Inhibition assay (enzymatic assay) of HCV NS3/4A protease", "type": "biochemical", "conditions": "enzyme 1 nM, 25 μM NS4A cofactor, 0.5 μM depsipeptide substrate, 30° C., competitive model", "description": "The aim of this in vitro assay is to measure the inhibition of HCV NS3/4A protease complexes by the compounds of the present invention. This assay provides an indication of how effective compounds of the present invention would be in inhibiting HCV NS3/4A proteolytic activity.\nThe inhibition of full-length hepatitis C NS3 protease enzyme was measured essentially as described in Poliakov, 2002 Prot Expression & Purification 25 363 371. Briefly, the hydrolysis of a depsipeptide substrate, Ac-DED(Edans)EEAbuψ[COO]ASK(Dabcyl)-NH2 (AnaSpec, San José, USA), was measured spectrofluorometrically in the presence of a peptide cofactor, KKGSVVIVGRIVLSGK (Åke Engström, Department of Medical Biochemistry and Microbiology, Uppsala University, Sweden). [Landro, 1997 #Biochem 36 9340-9348]. The enzyme (1 nM) was incubated in 50 mM HEPES, pH 7.5, 10 mM DTT, 40% glycerol, 0.1% n-octyl-D-glucoside, with 25 μM NS4A cofactor and inhibitor at 30° C. for 10 min, whereupon the reaction was initiated by addition of 0.5 μM substrate. Inhibitors were dissolved in DMSO, sonicated for 30 sec. and vortexed. The solutions were stored at −20° C. between measurements.\nThe final concentration of DMSO in the assay sample was adjusted to 3.3%. The rate of hydrolysis was corrected for inner filter effects according to published procedures. [Liu, 1999 Analytical Biochemistry 267 331-335]. Ki values were estimated by non-linear regression analysis (GraFit, Erithacus Software, Staines, MX, UK), using a model for competitive inhibition and a fixed value for Km (0.15 μM). A minimum of two replicates was performed for all measurements."}},
  "data": [
    {"smiles": "COc1ccc2c(O[C@@H]3C[C@H]4C(=O)N[C@]5(C(=O)NS(=O)(=O)C6CC6)C[C@H]5/C=C\\CCCCN(C)C(=O)[C@@H]4C3)nc(-c3ccccc3)nc2c1", "note": "[Compound 21, Cyclopropanesulfonic acid [17-(7-methoxy-2-phenyl-quinazolin-4-yloxy)-13-methyl-2,14-dioxo-3,13-diaza-tricyclo[13.3.0.0*4,6*]octadec-7-ene-4-carbonyl]-amide]", "values": [
      {"measurement": "EC50", "setting": "[1]", "value": "0.5 to 199", "unit": "nM"},
      {"measurement": "Ki", "setting": "[2]", "value": "0.1 to 4.9", "unit": "nM"}
    ]},
    {"smiles": "CN1CCCC/C=C\\[C@@H]2C[C@@]2(C(=O)NS(=O)(=O)C2CC2)NC(=O)[C@@H]2C[C@@H](Oc3nc(-c4ccccc4)nc4ccccc34)C[C@H]2C1=O", "note": "[Compound 31, Cyclopropanesulfonic acid [13-methyl-2,14-dioxo-17-(2-phenylquinazolin-4-yl-oxy)3,13-diaza-tricyclo[13.3.0.0*4,6*]octadec-7-ene-4-carbonyl]amide]", "values": [
      {"measurement": "EC50", "setting": "[1]", "value": "0.5 to 199", "unit": "nM"},
      {"measurement": "Ki", "setting": "[2]", "value": "0.1 to 4.9", "unit": "nM"}
    ]},
    {"smiles": "CN1CCN(c2nc(O[C@@H]3C[C@H]4C(=O)N[C@]5(C(=O)NS(=O)(=O)C6CC6)C[C@H]5/C=C\\CCCCN(C)C(=O)[C@@H]4C3)c3ccccc3n2)CC1", "note": "[Compound 34, Cyclopropanesulfonic acid {13-methyl-17-[2-(4-methyl-piperazin-1-yl)quinazolin-4-yloxy]-2,14-dioxo-3,13-diaza-tricyclo[13.3.0.0*4,6*]octadec-7-ene4-carbonyl}-amide]", "values": [
      {"measurement": "EC50", "setting": "[1]", "value": "200 to 990", "unit": "nM"},
      {"measurement": "Ki", "setting": "[2]", "value": "5 to 99.9", "unit": "nM"}
    ]},
    {"smiles": "CN1CCCC/C=C\\[C@@H]2C[C@@]2(C(=O)NS(=O)(=O)C2CC2)NC(=O)[C@@H]2C[C@@H](Oc3nc(N4CCOCC4)nc4ccccc34)C[C@H]2C1=O", "note": "[Compound 36, Cyclopropanesulfonic acid [13-methyl-17-(2-morpholin-4-yl-quinazolin-4-yloxy)-2,14-dioxo-3,13-diaza-tricyclo[13.3.0.0*4,6*]octadec-7-ene-4-carbonyl]-amide]", "values": [
      {"measurement": "EC50", "setting": "[1]", "value": "200 to 990", "unit": "nM"},
      {"measurement": "Ki", "setting": "[2]", "value": "5 to 99.9", "unit": "nM"}
    ]},
    {"smiles": "CC(C)c1csc(-c2nc(O[C@@H]3C[C@H]4C(=O)N[C@]5(C(=O)NS(=O)(=O)C6CC6)C[C@H]5/C=C\\CCCCN(C)C(=O)[C@@H]4C3)c3ccccc3n2)n1", "note": "[Compound 44, Cyclopropanesulfonic acid {17-[2-(4-isopropyl-thiazol-2-yl)-quinazolin-4-yloxy-]-13-methyl-2,14-dioxo-3,13-diaza-tricyclo[13.3.0.0*4,6*]octadec-7-ene-4-carbonyl}-amide]", "values": [
      {"measurement": "EC50", "setting": "[1]", "value": "0.5 to 199", "unit": "nM"},
      {"measurement": "Ki", "setting": "[2]", "value": "0.1 to 4.9", "unit": "nM"}
    ]},
    {"smiles": "COc1ccc2c(O[C@@H]3C[C@H]4C(=O)N[C@]5(C(=O)NS(=O)(=O)C6CC6)C[C@H]5/C=C\\CCCCN(C)C(=O)[C@@H]4C3)nc(-c3nc(C(C)C)cs3)nc2c1", "note": "[Compound 45, Cyclopropanesulfonic acid {17-[2-(4-isopropyl-thiazol-2-yl)-7-methoxy-quinazolin-4-yloxy]-13-methyl-2,14-dioxo-3,13-diaza-tricyclo[13.3.0.0*4,6*]octadec-7-ene-4-carbonyl}-amide]", "values": [
      {"measurement": "EC50", "setting": "[1]", "value": "0.5 to 199", "unit": "nM"},
      {"measurement": "Ki", "setting": "[2]", "value": "0.1 to 4.9", "unit": "nM"}
    ]},
    {"smiles": "COc1ccc2c(O[C@@H]3C[C@H]4C(=O)N[C@]5(C(=O)NS(=O)(=O)C6CC6)C[C@H]5/C=C\\CCCCN(C)C(=O)N4C3)nc(-c3ccccc3)nc2c1", "note": "[Compound 53, Cyclopropanesulfonic acid [17-(7-methoxy-2-phenyl-quinazolin-4-yloxy)-13-methyl-2,14-dioxo-3,13,15-triaza-tricyclo[13.3.0.0*4,6*]octadec-7-ene-4-carbonyl]-amide]", "values": [
      {"measurement": "EC50", "setting": "[1]", "value": "0.5 to 199", "unit": "nM"},
      {"measurement": "Ki", "setting": "[2]", "value": "0.1 to 4.9", "unit": "nM"}
    ]},
    {"smiles": "CC(C)Nc1nc(O[C@@H]2C[C@H]3C(=O)N[C@]4(C(=O)NS(=O)(=O)C5CC5)C[C@H]4/C=C\\CCCCN(C)C(=O)[C@@H]3C2)c2ccccc2n1", "note": "[Compound 71, Cyclopropanesulfonic acid [17-(2-isopropylamino-quinazolin-4-yloxy)-13-methyl-2,14-dioxo-3,13-diaza-tricyclo[13.3.0.0*4,6*]octadec-7-ene-4-carbonyl]-amide]", "values": [
      {"measurement": "EC50", "setting": "[1]", "value": "200 to 990", "unit": "nM"},
      {"measurement": "Ki", "setting": "[2]", "value": "0.1 to 4.9", "unit": "nM"}
    ]}
  ]
}
